Each structure is given as a SMILES string.

The nature of the series: solvent given as SMILES.
Where [1] appears, read: in CCCCCCCCC=CCCCCCCCC(=O)OCC(COC(=O)CCCCCCCC=CCCCCCCCC)OC(=O)CCCCCCCC=CCCCCCCCC

Regarding `CCCCCCNCc1ccc(C)cc1`, for the setting “in O”, the “solvation free energy, 298 K” value was -4.97 kcal/mol.
For the molecule `CCO`, the “solvation free energy, 298 K” value (in Brc1ccccc1) is -3.13 kcal/mol; the “solvation free energy, 298 K” value (in C1CCCCC1) was -2.32 kcal/mol; the “solvation free energy, 298 K” value (in C1CCOC1) was -4.51 kcal/mol; the “solvation free energy, 298 K” value (in C1COCCO1) was -4.36 kcal/mol; the “solvation free energy, 298 K” value (in C=CCCCCCCC) is -2.34 kcal/mol; the “solvation free energy, 298 K” value (in CC1COC(=O)O1) was -4.2 kcal/mol. In addition, the “solvation free energy, 298 K” value is -4.38 kcal/mol (in CC#N); -5.24 kcal/mol (in CC(=O)N(C)C); -5.22 kcal/mol (in CC(=O)O); -4.04 kcal/mol (in CC(=O)c1ccccc1); -5.05 kcal/mol (in CC(C)(C)O); -4.54 kcal/mol (in CC(C)=O). In addition, the “solvation free energy, 298 K” value is -2.36 kcal/mol (in CC(C)CC(C)(C)C); -2.01 kcal/mol (in CC(C)CCCC(C)CCCC(C)CCCCC(C)CCCC(C)CCCC(C)C); -4.8 kcal/mol (in CC(C)CCO); -4.79 kcal/mol (in CC(C)CO); -4.94 kcal/mol (in CC(C)O); -3.77 kcal/mol (in CC(C)OC(C)C). Besides, the “solvation free energy, 298 K” value runs as follows: (in CC(Cl)Cl) -3.56 kcal/mol; (in CCC(C)=O) -4.36 kcal/mol; (in CCCC#N) -4.1 kcal/mol; (in CCCCC(CC)COC(=O)CCCCC(=O)OCC(CC)CCCC) -3.37 kcal/mol; (in CCCCCCC) -2.2 kcal/mol; (in CCCCCCCC) -2.14 kcal/mol. The “solvation free energy, 298 K” value was -3.22 kcal/mol under setting [1]; -2.25 kcal/mol (in CCCCCCCCCC); -1.97 kcal/mol (in CCCCCCCCCCCCCCCC); -4.1 kcal/mol (in CCCCCCCCCCO); -3.26 kcal/mol (in CCCCCCCCCOC(=O)c1ccccc1C(=O)OCCCCCCCCC); -4.43 kcal/mol (in CCCCCCCCO). The “solvation free energy, 298 K” value reads like this: (in CCCCCO) -4.65 kcal/mol; (in CCCCCl) -3.07 kcal/mol; (in CCCCN(C=O)CCCC) -4.53 kcal/mol; (in CCCCO) -4.9 kcal/mol; (in CCCCOCCCC) -3.32 kcal/mol; (in CCCO) -4.91 kcal/mol. The “solvation free energy, 298 K” value is, setting by setting: (in CCCOCCC) -3.45 kcal/mol; (in CCN(CC)C(C)=O) -5.06 kcal/mol; (in CCN(CC)CC) -4.02 kcal/mol; (in CCNC(C)=O) -4.95 kcal/mol; (in CCNC=O) -4.9 kcal/mol; (in CCOC(=O)c1ccccc1C(=O)OCC) -3.54 kcal/mol. Moreover, the “solvation free energy, 298 K” value was -4.13 kcal/mol (in CCOC(C)=O); -4.42 kcal/mol (in CCOCC); -4.56 kcal/mol (in CCOCCO); -4.21 kcal/mol (in CCOCCOCCOCC); -4.76 kcal/mol (in CCOP(=O)(OCC)OCC); -3.36 kcal/mol (in CCOc1ccccc1). Also, the “solvation free energy, 298 K” value was -5.09 kcal/mol (in CN1CCCC1=O); -5.13 kcal/mol (in CN1CCCCC1=O); -4.92 kcal/mol (in CN1CCN(C)C1=O); -5.1 kcal/mol (in CN(C)C=O); -6.13 kcal/mol (in CN(C)P(=O)(N(C)C)N(C)C); -4.98 kcal/mol (in CNC(C)=O). Besides, the “solvation free energy, 298 K” value is, setting by setting: (in CNC=O) -4.96 kcal/mol; (in CO) -5.28 kcal/mol; (in COC(C)(C)C) -3.94 kcal/mol; (in COC(C)=O) -4.11 kcal/mol; (in COCCO) -4.79 kcal/mol; (in COP(=O)(OC)OC) -4.98 kcal/mol. In addition, the “solvation free energy, 298 K” value by setting is: (in COc1ccccc1) -3.52 kcal/mol; (in CS(C)=O) -5.24 kcal/mol; (in Cc1ccc(C)cc1) -3.12 kcal/mol; (in Cc1cccc(C)c1) -3 kcal/mol; (in Cc1cccc(C)n1) -4.87 kcal/mol; (in Cc1cccc(O)c1) -5.53 kcal/mol. The “solvation free energy, 298 K” value by setting is: (in Cc1ccccc1) -3.22 kcal/mol; (in Cc1ccccn1) -4.97 kcal/mol; (in ClC(Cl)(Cl)Cl) -2.97 kcal/mol; (in ClC(Cl)Cl) -3.96 kcal/mol; (in ClCCl) -3.75 kcal/mol; (in Clc1ccccc1) -3.18 kcal/mol. Also, the “solvation free energy, 298 K” value (in FC(F)(F)C(F)(F)C(F)(F)C(F)(F)C(F)(F)C(F)(F)F) is -1.55 kcal/mol; the “solvation free energy, 298 K” value (in Fc1c(F)c(F)c(F)c(F)c1F) was -2.79 kcal/mol; the “solvation free energy, 298 K” value (in Fc1ccccc1) was -3.32 kcal/mol; the “solvation free energy, 298 K” value (in ICI) was -2.83 kcal/mol; the “solvation free energy, 298 K” value (in Ic1ccccc1) was -3.04 kcal/mol; the “solvation free energy, 298 K” value (in NC=O) was -4.84 kcal/mol. Further, the “solvation free energy, 298 K” value (in Nc1ccccc1) is -4.38 kcal/mol; the “solvation free energy, 298 K” value (in O) was -5.01 kcal/mol; the “solvation free energy, 298 K” value (in O=C1CCCCC1) was -4.34 kcal/mol; the “solvation free energy, 298 K” value (in O=C1CCCO1) is -4.44 kcal/mol; the “solvation free energy, 298 K” value (in O=CN1CCOCC1) was -4.53 kcal/mol; the “solvation free energy, 298 K” value (in OCC(O)CO) was -4.32 kcal/mol. The “solvation free energy, 298 K” value (in OCCO) is -4.71 kcal/mol; the “solvation free energy, 298 K” value (in OCCOCCO) was -4.56 kcal/mol; the “solvation free energy, 298 K” value (in OCCOCCOCCO) was -4.17 kcal/mol; the “solvation free energy, 298 K” value (in OCc1ccccc1) was -4.79 kcal/mol; the “solvation free energy, 298 K” value (in S=C=S) is -2.71 kcal/mol; the “solvation free energy, 298 K” value (in [2H]O[2H]) was -5.08 kcal/mol. Also, the “solvation free energy, 298 K” value (in c1ccc2ncccc2c1) was -4.53 kcal/mol; the “solvation free energy, 298 K” value (in c1ccc(COCc2ccccc2)cc1) is -3.38 kcal/mol; the “solvation free energy, 298 K” value (in c1ccccc1) was -3.28 kcal/mol; the “solvation free energy, 298 K” value (in c1ccncc1) was -5.05 kcal/mol.
For the molecule `COc1cccc(C=O)c1O`, the “solvation free energy, 298 K” value (in O) was -6.89 kcal/mol.
The same measure, in the same setting: the figure for `CC1=CCC23C(C)CCC(C(C)C)C2C13` (centres undefined) is 0.56 kcal/mol.
Same read-out and setting: the figure for `C=C(C)C(CC=C(C)C)COC(C)=O` (centres undefined) is -3.36 kcal/mol; for `C=CC(=C)CCC=C(C)C` it is -0.5 kcal/mol.
On to `CCCCCCc1ccccc1`, for which the “solvation free energy, 298 K” value (in CO) is -7.13 kcal/mol.
As to `O=c1[nH]cc(C(F)(F)F)c(=O)[nH]1`, the “solvation free energy, 298 K” value (in O) was -15.5 kcal/mol.
For `CCC=CCCC=O`, the “solvation free energy, 298 K” value (in O) was -3.19 kcal/mol.
On the same count and under the same terms, the figure for `Cc1ccccc1C=O` is -3.93 kcal/mol.
On the same count and under the same terms, the figure for `CC1=CC2C(=CC1)C(C)CCC2C(C)C` (centres undefined) is -0.26 kcal/mol.
Consider `CC(C)(c1ccc(O)cc1)c1ccc(O)cc1`, for which the “solvation free energy, 298 K” value (in CCCCCCC) was -13 kcal/mol; the “solvation free energy, 298 K” value (in CCCCCCCC) was -12.9 kcal/mol; the “solvation free energy, 298 K” value (in CCCCCCCCCC) was -12.8 kcal/mol; the “solvation free energy, 298 K” value (in Cc1ccc(C)cc1) was -15.5 kcal/mol; the “solvation free energy, 298 K” value (in Cc1cccc(C)c1) was -15.5 kcal/mol; the “solvation free energy, 298 K” value (in Cc1ccccc1C) is -15.6 kcal/mol. The “solvation free energy, 298 K” value (in O) is -14.4 kcal/mol.
Turning to `C=CCl`, for the setting “in O”, the “solvation free energy, 298 K” value is -0.59 kcal/mol.
As for `CC(=O)N(C)C`, the “solvation free energy, 298 K” value (in C1CCCCC1) was -4.97 kcal/mol; the “solvation free energy, 298 K” value (in C=CCCCCCCC=C) was -5.22 kcal/mol; the “solvation free energy, 298 K” value (in CC(C)CC(C)(C)C) is -5.19 kcal/mol; the “solvation free energy, 298 K” value (in CCCCCCCCCCCCCCCC) is -4.26 kcal/mol; the “solvation free energy, 298 K” value (in O) was -8.15 kcal/mol; the “solvation free energy, 298 K” value (in [2H]O[2H]) is -7.78 kcal/mol. Moreover, the “solvation free energy, 298 K” value (in c1ccccc1) is -6.41 kcal/mol.
In the case of `CCCCCCCN`, the “solvation free energy, 298 K” value (in CCCCCCC) was -6.22 kcal/mol.
On to `CC(=O)OCCOC(C)=O`, for which, where the note is “in O”, the “solvation free energy, 298 K” value is -6.34 kcal/mol.
Regarding `CCN(C)N=O`, the “solvation free energy, 298 K” value by setting is: (in CC(C)CC(C)(C)C) -4.43 kcal/mol; (in O) -5.73 kcal/mol.
Take `ClC(Cl)=C(Cl)C(Cl)=C(Cl)Cl`: for the setting “in O”, the “solvation free energy, 298 K” value was -0.46 kcal/mol.
On to `ClCCOCCCl`, for which the “solvation free energy, 298 K” value (in O) is -4.23 kcal/mol.
As to `CCOCCOCC`, the “solvation free energy, 298 K” value (in O) is -3.54 kcal/mol.
As for `Clc1cc(Cl)c(Cl)c(Cl)c1Cl`, the “solvation free energy, 298 K” value runs as follows: under setting [1], -8.79 kcal/mol; (in CCCCCCCCO) -8.85 kcal/mol; (in O) -1.69 kcal/mol.
On to `COc1ccccc1OC`, for which the “solvation free energy, 298 K” value (in O) was -5.33 kcal/mol.
On to `CC(C)OC(=O)c1ccccc1C(=O)OC(C)C`, for which, under “in O”, the “solvation free energy, 298 K” value was -7.42 kcal/mol.
Consider `N#Cc1ccccc1`, for which the “solvation free energy, 298 K” value (in CCCCCCC) is -5.33 kcal/mol; the “solvation free energy, 298 K” value (in CCCCCCCCO) was -6 kcal/mol; the “solvation free energy, 298 K” value (in O) is -4.11 kcal/mol; the “solvation free energy, 298 K” value (in [2H]O[2H]) is -3.82 kcal/mol.
As for `CCCC(=O)OC`, the “solvation free energy, 298 K” value was -4.47 kcal/mol (in CCCO), -4.84 kcal/mol (in CO) and -2.84 kcal/mol (in O).
Turning to `O=[N+]([O-])c1cccc(CO)c1`, the “solvation free energy, 298 K” value (in O) was -9.19 kcal/mol.

The record behind these values is the CombiSolv-Exp solvation set (Vermeire and Green 2021).
